Test results taken from article PMC11912475 (Journal of Medicinal Chemistry, 2025).

What was measured:
[1] = target: GluN1-GluN2D NMDAR subtype (Homo sapiens, UniProt O15399+Q05586); assay: FLIPR/Ca2+ assay, NMDAR GluN1-GluN2D subtype in CHO cells; format: cell-based; settings: CHO cells, 10 μM L-glutamate and 10 μM glycine, n.d. = 50% of inhibition could not be reached at the highest concentration used
Method: (§1) These compounds were assessed for their effects on specific heterodimeric NMDAR subtypes stably overexpressed in Chinese Hamster Ovary (CHO) cells. The subtypes tested included GluN1-GluN2A, GluN1-GluN2B, GluN1-GluN2C, and GluN1-GluN2D. CHO cells expressing each of the four NMDAR subtypes were incubated with 10 μM L-glutamate, a concentration known to elicit maximal Ca^2+ influx, serving as the stimulus. Intracellular Ca^2+ levels were subsequently measured to determine the extent of NMDAR activation.
(§2) Assay buffer composition was 145 mM NaCl, 5 mM KCl, 2 mM CaCl2, 1 g/Liter D-(+)-glucose, and 20 mM HEPES (pH 7.3 adjusted with NaOH). Cells were plated at a density of 15.000/well in 384 black/clear bottom plates. […] Cells were kept at 30 °C in 5% CO2 incubator for 24 h. Cells were preloaded for 1 h with 2 μM Fluo-4 Ca^2+-sensitive probe, simultaneously with 2.5 mM probenecid, an inhibitor of nonspecific anion transport, and 500 μM ketamine to avoid cytotoxicity. […] Intracellular Ca^2+ level was monitored by FLIPR (excitation wavelength at 470–495 nm, emission wavelength at 515–575 nm) for 10 s before and 5 min after the addition of test items. All test items, including L-glutamate and glycine, were added simultaneously. […] FLIPR data were normalized as 100%, in the presence of 10 μM L-glutamate and 10 μM glycine, while as 0%, in the presence of assay buffer. […] Then, data were normalized by Excel 2013 (Microsoft Office) software, using wells added with 10 μM L-glutamate plus 10 μM glycine (column 23) as high control, and wells added with assay buffer only (column 24) as low control. To assess plate quality, Z′ calculations were performed in Excel. Z′ was calculated according to following equation: Z′ = 1–3(σh + σl)/|μh – μL| where μ and σ are the means and the standard deviations of the means of high (h) and low (l) controls, respectively. Compound concentration–response curves were plotted by Prism 8 GraphPad software, in the different experimental conditions (see Supporting Information). Data were analyzed using least-squares regression fitting, to fit data to a standard four parameters logistic equation using GraphPad Prism10. This regression fitting allowed the calculation of pIC50 and the corresponding SEM.

[2] = target: GluN1-GluN2A NMDAR subtype (Homo sapiens, UniProt Q05586+Q12879); assay: FLIPR/Ca2+ assay, NMDAR GluN1-GluN2A subtype in CHO cells; format: cell-based; settings: CHO cells, 10 μM L-glutamate and 10 μM glycine; n.d. = 50% of inhibition could not be reached at the highest concentration used
Method: as §1, §2

[3] = target: GluN1-GluN2C NMDAR subtype (Homo sapiens, UniProt Q05586+Q14957); assay: FLIPR/Ca2+ assay, NMDAR GluN1-GluN2C subtype in CHO cells; format: cell-based; settings: CHO cells, 10 μM L-glutamate and 10 μM glycine, n.d. = 50% of inhibition could not be reached at the highest concentration used
Method: as §1, §2

[4] = target: T1, GluN1-GluN2B NMDAR subtype (Homo sapiens, UniProt Q05586+Q13224); assay: FLIPR/Ca2+ assay, NMDAR GluN1-GluN2B subtype in CHO cells; format: cell-based; settings: CHO cells, 10 μM L-glutamate and 10 μM glycine, n.d. = 50% of inhibition could not be reached at the highest concentration used
T1 construct: host or cells: NR1-2B-CHO cells, constitutive expression
Method: as §1, §2

μ opioid receptor (MOP) = target: T2, μ opioid receptor (MOP) (Homo sapiens, UniProt P35372); assay: biochemical; format: binding; settings: read-out: % inhibition of binding, MOP
T2 construct: host or cells: CHO-K1

Muscarinic M5 = target: T3, Muscarinic M5 (Homo sapiens, UniProt P08912); assay: Radioligand displacement binding assay, [3H]N-methylscopolamine, M5
T3 construct: host or cells: CHO-K1
T3 sequence (P08912 1-532): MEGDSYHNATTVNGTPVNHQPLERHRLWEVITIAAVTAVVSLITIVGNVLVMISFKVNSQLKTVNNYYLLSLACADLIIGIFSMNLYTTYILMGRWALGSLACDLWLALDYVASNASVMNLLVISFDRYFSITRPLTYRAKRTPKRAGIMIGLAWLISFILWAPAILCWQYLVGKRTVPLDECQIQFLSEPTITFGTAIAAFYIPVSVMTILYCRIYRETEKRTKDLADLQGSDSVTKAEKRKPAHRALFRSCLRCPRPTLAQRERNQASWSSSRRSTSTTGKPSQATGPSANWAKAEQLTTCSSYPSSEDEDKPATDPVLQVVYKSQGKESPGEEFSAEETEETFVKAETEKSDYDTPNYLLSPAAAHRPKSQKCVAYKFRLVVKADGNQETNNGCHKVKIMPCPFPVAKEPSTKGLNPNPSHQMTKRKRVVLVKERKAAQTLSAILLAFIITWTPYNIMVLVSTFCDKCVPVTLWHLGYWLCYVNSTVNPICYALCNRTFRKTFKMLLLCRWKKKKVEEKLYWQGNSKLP

Sigma σ1 = target: T4, Sigma σ1 (Homo sapiens, UniProt Q99720); assay: Radioligand displacement binding assay, [3H]pentazocine, sigma σ1
T4 construct: Sigma σ1; Source: Human Jurkat cells; host or cells: Jurkat

[5] = tested on: Glutamate, NMDA, Phencyclidine binding site; assay: Radioligand displacement binding assay, [3H]TCP, NMDA; set-up: species or system Wistar rat
Serotonin 5-HT1A = target: T5, Serotonin 5-HT1A (Homo sapiens, UniProt P08908); assay: Radioligand displacement binding assay, [3H]8-OH-DPAT, 5-HT1A
T5 construct: host or cells: CHO-K1
T5 sequence (P08908 1-422): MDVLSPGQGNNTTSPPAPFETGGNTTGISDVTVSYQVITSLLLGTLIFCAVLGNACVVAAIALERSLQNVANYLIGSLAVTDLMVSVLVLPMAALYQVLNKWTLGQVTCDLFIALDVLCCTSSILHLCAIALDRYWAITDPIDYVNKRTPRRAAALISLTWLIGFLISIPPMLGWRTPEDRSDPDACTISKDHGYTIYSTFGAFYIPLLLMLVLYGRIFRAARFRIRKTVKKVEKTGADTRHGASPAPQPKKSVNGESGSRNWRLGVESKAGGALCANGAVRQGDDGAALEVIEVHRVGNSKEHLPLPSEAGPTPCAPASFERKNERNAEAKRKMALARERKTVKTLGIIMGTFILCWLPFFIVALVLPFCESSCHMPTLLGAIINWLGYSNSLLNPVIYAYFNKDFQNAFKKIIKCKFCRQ

[6] = target: T6, Serotonin transporter SERT (Homo sapiens, UniProt P31645); assay: Radioligand displacement binding assay, [3H]paroxetine, SERT
T6 construct: host or cells: HEK-293

Serotonin 5-HT2A = target: T7, Serotonin 5-HT2A (Homo sapiens, UniProt P28223); assay: Radioligand displacement binding assay, [3H]ketanserin, 5-HT2A
T7 construct: host or cells: CHO-K1

Histamine H1 = target: T8, Histamine H1 (Homo sapiens, UniProt P35367); assay: Radioligand displacement binding assay, [3H]pyrilamine, H1; settings: for displacement at the histamine H1 receptor, in words: concentration not given
T8 construct: host or cells: CHO-K1

Serotonin 5-HT2C = target: T9, Serotonin 5-HT2C (Homo sapiens, UniProt P28335); assay: Radioligand displacement binding assay, [3H]mesulergine, 5-HT2C
T9 construct: host or cells: CHO-K1
T9 sequence (P28335 33-458): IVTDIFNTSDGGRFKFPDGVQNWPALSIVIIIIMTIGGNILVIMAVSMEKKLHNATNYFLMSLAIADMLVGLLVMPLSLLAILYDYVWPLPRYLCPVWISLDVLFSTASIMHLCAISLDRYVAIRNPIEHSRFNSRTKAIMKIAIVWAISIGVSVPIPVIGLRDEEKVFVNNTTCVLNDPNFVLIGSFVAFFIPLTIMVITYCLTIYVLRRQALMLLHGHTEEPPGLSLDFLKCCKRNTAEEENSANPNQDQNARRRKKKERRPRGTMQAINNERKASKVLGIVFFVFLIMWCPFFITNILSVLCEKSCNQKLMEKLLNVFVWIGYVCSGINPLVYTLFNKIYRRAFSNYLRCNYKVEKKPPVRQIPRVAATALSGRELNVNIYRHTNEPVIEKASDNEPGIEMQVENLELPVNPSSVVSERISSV

[7] = target: T10, Norepinephrine transporter NET (Homo sapiens, UniProt P23975); assay: Radioligand displacement binding assay, [125I]RTI-55, NET
T10 construct: host or cells: MDCK

Serotonin 5-HT5A = target: T11, Serotonin 5-HT5A (Homo sapiens, UniProt P47898); assay: Radioligand displacement binding assay, [3H]LSD, 5-HT5A
T11 construct: host or cells: CHO-K1

Serotonin 5-HT7 = target: T12, Serotonin 5-HT7 (Homo sapiens, UniProt P34969); assay: Radioligand displacement binding assay, [3H]LSD, 5-HT7
T12 construct: host or cells: CHO-K1
T12 sequence (P34969 whole entry): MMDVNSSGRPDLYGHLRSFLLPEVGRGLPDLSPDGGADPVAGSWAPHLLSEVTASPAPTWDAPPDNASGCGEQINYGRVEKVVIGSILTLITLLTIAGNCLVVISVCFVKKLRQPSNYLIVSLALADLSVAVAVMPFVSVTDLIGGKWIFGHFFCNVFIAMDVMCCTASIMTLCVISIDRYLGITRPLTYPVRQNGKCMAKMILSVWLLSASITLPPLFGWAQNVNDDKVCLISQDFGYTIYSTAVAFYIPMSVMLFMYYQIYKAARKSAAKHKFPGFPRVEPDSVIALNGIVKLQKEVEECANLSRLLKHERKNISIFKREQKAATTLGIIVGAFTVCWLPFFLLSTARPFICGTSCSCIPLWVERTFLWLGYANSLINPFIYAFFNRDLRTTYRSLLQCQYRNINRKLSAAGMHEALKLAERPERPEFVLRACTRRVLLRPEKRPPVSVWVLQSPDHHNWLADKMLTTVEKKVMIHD

Sequence of GluN1-GluN2A NMDAR subtype (Q12879 23-1464, other chains not shown): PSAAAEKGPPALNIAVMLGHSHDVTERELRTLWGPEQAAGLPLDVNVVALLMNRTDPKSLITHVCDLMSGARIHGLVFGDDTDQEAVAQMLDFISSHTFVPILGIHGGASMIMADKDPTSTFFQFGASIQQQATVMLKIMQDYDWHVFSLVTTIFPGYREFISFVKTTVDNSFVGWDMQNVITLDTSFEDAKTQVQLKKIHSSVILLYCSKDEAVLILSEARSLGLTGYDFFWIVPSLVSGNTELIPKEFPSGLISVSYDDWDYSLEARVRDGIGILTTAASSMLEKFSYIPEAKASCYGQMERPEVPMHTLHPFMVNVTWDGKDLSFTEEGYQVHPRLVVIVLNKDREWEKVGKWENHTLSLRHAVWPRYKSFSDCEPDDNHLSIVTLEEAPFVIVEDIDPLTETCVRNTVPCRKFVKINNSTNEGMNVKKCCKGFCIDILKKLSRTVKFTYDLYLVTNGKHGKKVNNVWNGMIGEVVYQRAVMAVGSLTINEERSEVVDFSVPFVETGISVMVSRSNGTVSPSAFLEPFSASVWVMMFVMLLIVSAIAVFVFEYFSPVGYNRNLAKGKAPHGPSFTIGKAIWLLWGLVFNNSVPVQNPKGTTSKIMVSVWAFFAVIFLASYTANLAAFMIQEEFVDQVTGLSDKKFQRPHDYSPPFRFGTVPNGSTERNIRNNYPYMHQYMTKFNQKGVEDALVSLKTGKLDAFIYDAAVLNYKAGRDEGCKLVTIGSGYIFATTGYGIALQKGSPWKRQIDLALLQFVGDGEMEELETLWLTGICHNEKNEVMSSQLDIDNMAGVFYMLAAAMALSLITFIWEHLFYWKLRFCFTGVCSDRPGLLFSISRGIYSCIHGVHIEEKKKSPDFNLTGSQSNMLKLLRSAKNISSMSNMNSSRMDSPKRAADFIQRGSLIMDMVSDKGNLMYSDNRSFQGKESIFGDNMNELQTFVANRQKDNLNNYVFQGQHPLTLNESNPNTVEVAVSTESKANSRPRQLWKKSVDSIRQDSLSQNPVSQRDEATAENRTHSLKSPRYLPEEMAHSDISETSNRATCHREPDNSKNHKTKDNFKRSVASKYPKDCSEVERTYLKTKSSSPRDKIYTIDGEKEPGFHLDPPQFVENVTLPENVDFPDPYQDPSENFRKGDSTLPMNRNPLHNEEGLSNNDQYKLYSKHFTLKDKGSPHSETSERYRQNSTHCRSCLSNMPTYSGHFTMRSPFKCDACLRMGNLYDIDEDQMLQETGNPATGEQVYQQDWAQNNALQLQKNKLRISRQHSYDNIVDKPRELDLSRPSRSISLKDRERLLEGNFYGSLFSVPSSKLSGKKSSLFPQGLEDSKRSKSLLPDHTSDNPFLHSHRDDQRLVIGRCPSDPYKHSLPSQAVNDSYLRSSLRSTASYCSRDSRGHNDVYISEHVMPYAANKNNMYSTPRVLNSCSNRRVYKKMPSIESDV
Sequence of GluN1-GluN2C NMDAR subtype (Q14957 20-1233, other chains not shown): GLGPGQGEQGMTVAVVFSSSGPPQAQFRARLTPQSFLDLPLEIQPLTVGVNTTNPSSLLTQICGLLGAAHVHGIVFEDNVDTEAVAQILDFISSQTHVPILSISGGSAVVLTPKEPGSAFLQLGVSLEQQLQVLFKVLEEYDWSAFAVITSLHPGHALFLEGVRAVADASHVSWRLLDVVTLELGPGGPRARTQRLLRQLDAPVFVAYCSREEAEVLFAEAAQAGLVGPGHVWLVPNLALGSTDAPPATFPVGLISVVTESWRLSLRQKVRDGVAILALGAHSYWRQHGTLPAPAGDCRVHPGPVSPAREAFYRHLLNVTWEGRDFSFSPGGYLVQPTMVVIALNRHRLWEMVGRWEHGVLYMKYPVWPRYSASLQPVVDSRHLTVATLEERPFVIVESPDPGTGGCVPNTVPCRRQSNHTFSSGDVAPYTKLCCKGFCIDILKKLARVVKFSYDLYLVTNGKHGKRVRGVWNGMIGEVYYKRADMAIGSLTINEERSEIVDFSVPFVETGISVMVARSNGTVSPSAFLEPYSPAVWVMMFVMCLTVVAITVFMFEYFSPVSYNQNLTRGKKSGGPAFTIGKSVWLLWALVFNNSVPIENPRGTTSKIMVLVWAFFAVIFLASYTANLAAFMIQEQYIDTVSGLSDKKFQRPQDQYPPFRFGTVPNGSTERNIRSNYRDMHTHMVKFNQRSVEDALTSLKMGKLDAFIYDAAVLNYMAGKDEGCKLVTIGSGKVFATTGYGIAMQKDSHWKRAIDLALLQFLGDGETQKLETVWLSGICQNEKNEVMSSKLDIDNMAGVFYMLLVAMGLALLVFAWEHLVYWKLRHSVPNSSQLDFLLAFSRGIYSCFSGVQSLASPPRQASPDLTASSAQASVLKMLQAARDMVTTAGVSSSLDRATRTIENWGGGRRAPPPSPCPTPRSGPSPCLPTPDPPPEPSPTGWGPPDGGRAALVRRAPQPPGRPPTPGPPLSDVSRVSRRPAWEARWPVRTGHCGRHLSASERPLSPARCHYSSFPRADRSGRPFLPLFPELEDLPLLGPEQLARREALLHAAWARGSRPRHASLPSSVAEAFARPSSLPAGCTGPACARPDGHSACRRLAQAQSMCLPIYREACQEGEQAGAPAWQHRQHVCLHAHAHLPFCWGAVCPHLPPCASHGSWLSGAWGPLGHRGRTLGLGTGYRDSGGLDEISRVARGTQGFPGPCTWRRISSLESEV
T7 sequence (P28223 whole entry): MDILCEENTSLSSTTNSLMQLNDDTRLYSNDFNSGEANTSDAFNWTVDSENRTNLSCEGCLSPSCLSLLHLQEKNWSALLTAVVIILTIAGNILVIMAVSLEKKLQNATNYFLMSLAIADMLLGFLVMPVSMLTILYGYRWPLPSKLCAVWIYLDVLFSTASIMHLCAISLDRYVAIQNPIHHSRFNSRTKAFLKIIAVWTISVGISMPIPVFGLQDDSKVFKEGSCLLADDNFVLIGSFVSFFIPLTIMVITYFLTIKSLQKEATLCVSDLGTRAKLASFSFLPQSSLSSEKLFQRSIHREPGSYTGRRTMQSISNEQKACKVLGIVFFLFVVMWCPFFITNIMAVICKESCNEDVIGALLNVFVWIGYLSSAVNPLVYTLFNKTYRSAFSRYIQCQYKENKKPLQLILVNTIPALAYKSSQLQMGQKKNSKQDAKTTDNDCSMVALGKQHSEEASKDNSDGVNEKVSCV
T6 sequence (P31645 whole entry): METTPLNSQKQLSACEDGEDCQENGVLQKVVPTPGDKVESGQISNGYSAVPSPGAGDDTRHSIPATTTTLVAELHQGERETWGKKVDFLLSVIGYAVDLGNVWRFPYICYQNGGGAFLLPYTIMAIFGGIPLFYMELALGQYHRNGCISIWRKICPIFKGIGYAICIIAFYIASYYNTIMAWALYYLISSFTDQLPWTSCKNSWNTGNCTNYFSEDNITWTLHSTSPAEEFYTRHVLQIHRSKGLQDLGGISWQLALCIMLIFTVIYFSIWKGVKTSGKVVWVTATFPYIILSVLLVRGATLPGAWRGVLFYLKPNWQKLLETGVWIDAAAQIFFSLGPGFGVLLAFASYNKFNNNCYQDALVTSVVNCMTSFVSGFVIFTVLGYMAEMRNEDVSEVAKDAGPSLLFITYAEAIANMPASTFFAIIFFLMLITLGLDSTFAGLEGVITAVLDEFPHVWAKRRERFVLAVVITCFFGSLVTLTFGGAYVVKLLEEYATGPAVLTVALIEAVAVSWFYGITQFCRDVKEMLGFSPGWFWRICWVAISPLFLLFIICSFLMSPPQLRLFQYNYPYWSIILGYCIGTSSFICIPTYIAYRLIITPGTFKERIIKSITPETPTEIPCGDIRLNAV
T10 sequence (P23975 whole entry): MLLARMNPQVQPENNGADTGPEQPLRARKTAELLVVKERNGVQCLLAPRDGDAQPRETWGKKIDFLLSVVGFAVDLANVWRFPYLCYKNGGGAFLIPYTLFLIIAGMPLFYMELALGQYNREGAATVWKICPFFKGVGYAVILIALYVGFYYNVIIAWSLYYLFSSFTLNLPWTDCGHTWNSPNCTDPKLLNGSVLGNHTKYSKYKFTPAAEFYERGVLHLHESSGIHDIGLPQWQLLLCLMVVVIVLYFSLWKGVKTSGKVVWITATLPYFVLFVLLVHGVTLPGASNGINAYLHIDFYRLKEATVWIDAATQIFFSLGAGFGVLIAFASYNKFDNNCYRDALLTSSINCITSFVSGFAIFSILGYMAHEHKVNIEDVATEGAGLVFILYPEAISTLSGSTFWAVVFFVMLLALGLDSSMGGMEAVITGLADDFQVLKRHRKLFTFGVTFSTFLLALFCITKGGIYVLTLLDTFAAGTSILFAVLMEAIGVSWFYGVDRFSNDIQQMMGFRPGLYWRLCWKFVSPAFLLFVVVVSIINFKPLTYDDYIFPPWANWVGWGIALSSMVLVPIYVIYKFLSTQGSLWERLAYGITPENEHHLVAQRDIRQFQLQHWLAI
T4 sequence (Q99720 whole entry): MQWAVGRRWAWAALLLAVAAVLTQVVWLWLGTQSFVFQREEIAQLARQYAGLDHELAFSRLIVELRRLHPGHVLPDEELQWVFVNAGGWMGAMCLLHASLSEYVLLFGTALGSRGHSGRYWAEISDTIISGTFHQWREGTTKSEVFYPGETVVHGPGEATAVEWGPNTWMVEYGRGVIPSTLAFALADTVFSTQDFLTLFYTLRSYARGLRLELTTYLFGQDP

SMILES: CNC1(c2ccccc2Cl)CCCCC1=O (racemic) [(±)-ketamine, reference compound]
- pIC50 (mean ± SEM) GluN1-GluN2D [1]: 5.0 ± 0.087
- pIC50 (mean ± SEM) GluN1-GluN2A [2]: 4.6 ± 0.028
- pIC50 (mean ± SEM) GluN1-GluN2C [3]: 5.4 ± 0.069
- pIC50 (mean ± SEM) GluN1-GluN2B [4]: 5.2 ± 0.037

SMILES: CC[C@@H](O)C(C[C@H](C)N(C)C)(c1ccccc1)c1ccccc1 [(3R,6S)-ML, (3R,6S)-6-(dimethylamino)-4,4-diphenylheptan-3-ol]
- pIC50 (mean ± SEM) GluN1-GluN2A [2]: 4.0 ± 0.23

SMILES: CC[C@H](O)C(C[C@@H](C)N(C)C)(c1ccccc1)c1ccccc1 [(3S,6R)-ML, (3S,6R)-6-(dimethylamino)-4,4-diphenylheptan-3-ol]
- pIC50 (mean ± SEM) GluN1-GluN2D [1]: 4.2 ± 0.23
- pIC50 (mean ± SEM) GluN1-GluN2A [2]: 4.5 ± 0.18
- pIC50 (mean ± SEM) GluN1-GluN2C [3]: 4.2 ± 0.074

SMILES: C[C@]12N[C@H](Cc3ccccc31)c1ccccc12 [(+)-MK-801, reference compound]
- pIC50 (mean ± SEM) GluN1-GluN2D [1]: 6.1 ± 0.58
- pIC50 (mean ± SEM) GluN1-GluN2C [3]: 6.2 ± 0.064
- pIC50 (mean ± SEM) GluN1-GluN2B [4]: 7.2 ± 0.067

SMILES: CCC1=[N+](C)[C@H](C)CC1(c1ccccc1)c1ccccc1.[Cl-] [(R)-EDDP, 2-Ethyl-1,5-dimethyl-3,3-diphenyl-3,4-dihydro-5H-pyrrolium chloride]
- pIC50 (mean ± SEM) GluN1-GluN2D [1]: 4.3 ± 0.060
- pIC50 (mean ± SEM) GluN1-GluN2C [3]: 4.3 ± 0.056

SMILES: CCC1=N[C@H](C)CC1(c1ccccc1)c1ccccc1 [(R)-EMDP, 5-Ethyl-2-methyl-4,4-diphenyl-3,4-dihydro-2H-pyrrole]
- inhibition at 0.3 µM (μ opioid receptor (MOP); 0.3 μM): -4%
- inhibition at 3 µM (μ opioid receptor (MOP); 3 μM): 8%
- inhibition at 1 µM (Muscarinic M5): 6%
- inhibition at 10 µM (Muscarinic M5): 3%
- inhibition at 0.3 µM (Sigma σ1): 11%
- inhibition at 3 µM (Sigma σ1): 49%
- pIC50 (mean ± SEM) GluN1-GluN2A [2]: 4.8 ± 0.088
- % inhibition of binding, NMDA ([5]; 1 μM): 12%
- % inhibition of binding, NMDA ([5]; 10 μM): 4%
- inhibition at 0.3 µM (Serotonin 5-HT1A): 0%
- inhibition at 3 µM (Serotonin 5-HT1A): 7%
- inhibition at 1 µM [6]: 3%
- inhibition at 10 µM [6]: 7%
- inhibition at 0.3 µM (Serotonin 5-HT2A): 4%
- inhibition at 3 µM (Serotonin 5-HT2A): 14%
- inhibition at 10 µM (Histamine H1): 24%
- inhibition at 30 µM (Histamine H1): 62%
- displacement at the histamine H1 receptor, in words (Histamine H1): significant displacement percentages
- inhibition at 0.3 µM (Serotonin 5-HT2C): 2%
- inhibition at 3 µM (Serotonin 5-HT2C): 7%
- inhibition at 1 µM [7]: -5%
- inhibition at 10 µM [7]: 27%
- inhibition at 1 µM (Serotonin 5-HT5A): 1%
- inhibition at 10 µM (Serotonin 5-HT5A): 0%
- inhibition at 1 µM (Serotonin 5-HT7): 0%
- inhibition at 10 µM (Serotonin 5-HT7): 8%

SMILES: CCC1=N[C@@H](C)CC1(c1ccccc1)c1ccccc1 [(S)-EMDP, 5-Ethyl-2-methyl-4,4-diphenyl-3,4-dihydro-2H-pyrrole]
- IC50 ([1]; read-out: pIC50 (mean ± SEM) GluN1-GluN2D (converted)): > 100 µM
- IC50 ([3]; read-out: pIC50 (mean ± SEM) GluN1-GluN2C (converted)): > 100 µM
- IC50 ([4]; read-out: pIC50 (mean ± SEM) GluN1-GluN2B (converted)): > 100 µM

SMILES: CCC(=O)C(C[C@H](C)N(C)C)(c1ccccc1)c1ccccc1 [(S)-methadone, 6-(Dimethylamino)-4,4-diphenylheptan-3-one, reference compound]
- inhibition at 1 µM (Muscarinic M5): 25%
- inhibition at 10 µM (Muscarinic M5): 73%
- inhibition at 0.3 µM (Sigma σ1): 23%
- inhibition at 3 µM (Sigma σ1): 70%
- inhibition at 0.3 µM (Serotonin 5-HT1A): -2%
- inhibition at 3 µM (Serotonin 5-HT1A): 2%
- inhibition at 1 µM [6]: 21%
- inhibition at 10 µM [6]: 74%
- inhibition at 0.3 µM (Serotonin 5-HT2A): 22%
- inhibition at 3 µM (Serotonin 5-HT2A): 72%
- activity on 5-HT2A, in words (Serotonin 5-HT2A; concentration not given): appreciable activity
- inhibition at 10 µM (Histamine H1): 50%
- inhibition at 30 µM (Histamine H1): 73%
- displacement at the histamine H1 receptor, in words (Histamine H1): significant displacement percentages
- inhibition at 0.3 µM (Serotonin 5-HT2C): 30%
- inhibition at 3 µM (Serotonin 5-HT2C): 77%
- inhibition at 1 µM [7]: 5%
- inhibition at 10 µM [7]: 17%
- inhibition at 1 µM (Serotonin 5-HT5A): 24%
- inhibition at 10 µM (Serotonin 5-HT5A): 70%
- inhibition at 1 µM (Serotonin 5-HT7): 12%
- inhibition at 10 µM (Serotonin 5-HT7): 58%
